According to patent publication US8168232B2, “Formulations and methods of using nitric oxide mimetics in cancer treatment” (priority 2000, dated 2012):

What was measured:
Assay type in all cases: cell-based, human
uPAR protein = experiment: Western blot analysis of uPAR protein in MDA-MB-231 breast carcinoma cells
Method: Following incubations, the cells were lysed using a buffer containing 40 mM HEPES pH 7.2, 100 mM NaCl, 20% glycerol, 0.1 mM EDTA pH 8.0, 0.2% Triton X-100, 1 mM DTT, and 2 mM PMSF. The lysates were then subjected to homogenization, DNA shearing (10 times with a 25⅝-gauge needle), boiling (5 minutes) and centrifugation (15 minutes, 14000 g). The supernatant was collected and stored at −80° C. until use. The samples were subjected to SDS-polyacrylamide gel electrophoresis (PAGE) and the resolved proteins were transferred to an Immobilon-P membrane using a wet transfer apparatus (Bio-Rad Laboratories, Mississauga, ON). The membranes were blocked overnight at 4° C. in a solution containing 1% PBS, and 0.01% Tween20 (PBS-T) as well as 5% casein. The blots were subsequently incubated for 1.5 hours with the monoclonal anti-uPAR antibody [MoAb 3937], followed by six 5 minute washes with PBS-T. The membranes were then incubated with a horseradish peroxidase labeled goat anti-mouse IgG secondary antibody for 1.5 hours. Following six additional 5 minute washes with PBS-T, the antigen was detected by enhanced chemiluminescence and the blots were exposed onto Dupont Reflection NEF film.
Following incubation, the cells were lysed using a buffer containing 40 mM HEPES pH 7.2, 100 mM NaCl, 20% glycerol, 0.1 mM EDTA pH 8.0, 0.2% Triton X-100, 1 mM dithiothreitol (DTT), and 2 mM phenylmethyl sulfonyl fluoride (PMSF). The lysates were then subjected to homogenization, DNA shearing (10 times with a 25⅝-gauge needle), boiling (5 minutes) and centrifugation (15 minutes at 14,000×g). The supernatant was collected and stored at −80° C. until use. The samples were subjected to SDS-polyacrylamide gel electrophoresis (PAGE) and the resolved proteins were transferred to an Immobilon-P membrane (Millipore Corp., Bedford, Mass.) using a wet transfer apparatus (BioRad Laboratories, Mississauga, ON). The membranes were blocked overnight at 4° C. in a solution containing 1% PBS, and 0.01% Tween 20 (PBS-T) as well as 5% dry milk powder. The blots were subsequently incubated for 1.5 hours with the monoclonal anti-uPAR (MoAb 3937; American Diagnostica Inc., Greenwich, Conn.), or a polyclonal soluble guanylate cyclase (sGC) antiserum (Cayman Chemical, Ann Arbor, Mich.) followed by six 5-minute washes with PBS-T. Subsequently, the uPAR membranes were incubated for 1 hour with a horseradish peroxidase labelled goat anti-mouse IgG secondary antibody (Bio-Rad, Hercules, Calif.) and the sGC membranes were incubated for 1 hour with a goat anti-rabbit IgG horseradish peroxidase conjugate (VECTOR Laboratories Inc., Burlingame, Calif.). Following six additional 5-minute washes with PBS-T, the antigen was detected by enhanced chemiluminescence (Amersham Canada Inc., Mississauga, ON) and the blots were exposed onto Dupont Reflection NEF film.

[1] = test system: MDA-MB-231 breast cancer cells; experiment: Colony formation assay for doxorubicin resistance, MDA-MB-231 monolayer
Method: The resistance of MDA-MB-231 breast cancer cells to doxorubicin was determined following culture in 20% or 1% oxygen by counting the number of colonies formed. MDA-MB-231 cells were incubated in 1% O2 or 20% O2 for 24 hours. […] The cells were washed and then plated onto 35 mm plates at different dilutions. The cells were incubated for an additional 1-2 weeks in order to allow cell colonies to grow. At the end of the incubation period, the cells were fixed with Carnoy's fixative, stained with Crystal violet, rinsed and allowed to air dry. Colonies were counted visually. The surviving cells under each condition was determined by counting the number of colonies and was expressed as a fraction of the number of colonies that survived without doxorubicin exposure.
Using human MDA-MB-231 breast carcinoma cells in clonogenic assays, survival was determined following doxorubicin exposure and NO mimetic administration to both monolayer and spheroid cultures. […] However, these NO mimetics effectively attenuated the resistance to 200 μM doxorubicin associated with 3D culture by 90% and 30% respectively.

PROXY-1 mRNA = PROXY-1 mRNA levels in HTR-8/SVneo invasive trophoblast cells; conditions: 1% O2
From the text: PROXY-1 mRNA levels were very low in cells cultured in 20% O2.

[2] = test system: soluble guanylyl cyclase (sGC) / cellular cGMP; experiment: cGMP ELISA (sGC activity) in MDA-MB-231 cells
Method: The effects of hypoxia and NO-mimetic treatment on sGC levels were determined using Western Blot analysis. To determine sGC activity, cGMP levels were measured. Briefly, cells were extracted over ice in 1 mL of 6% trichloroacetic acid (BDH Laboratory Supplies, Poole, England). The homogenate was then centrifuged at 13,000 g for 10 min. The supernatant fraction was removed and extracted five times with 2 mL of water-saturated diethyl ether (BDH). The cGMP contained in this fraction was subsequently acetylated and quantitated using an enzyme-linked immuno-sorbent assay (ELISA) kit (STI—Signal Transduction Products, San Clemente, Calif.).
To determine the effect of hypoxia on cGMP levels, MDA-MB-231 breast carcinoma cells were incubated in 0.5% O2 for 6 hours in the presence of IBMX (500 μM).

PAI-1 mRNA = experiment: Northern blot of PAI-1 mRNA in breast cancer cells; conditions: SNP 10^−12 M, GTN 10^−11 M
Method: Following incubation, the total cellular RNA from the cells was isolated using the Gentra […] RNA Isolation Kit. The isolated RNA was subsequently separated by electrophoresis, and transferred to charged nylon membranes. The membranes were prehybridized at 42° C. for approximately 2 hours in a solution containing 50% formamide, 5×Denhardt's solution, 0.5% sodium dodecyl sulfate (SDS), 6×SSC (1×SSC=0.15 M NaCl, 15 mM sodium citrate, pH 7.0) and 100 μg/mL denatured salmon sperm DNA. They were then hybridized with a [^32P]-dCTP-labeled cDNA probe (uPAR or PAI-1) for approximately 24 hours at 42° C. in a solution composed of 6×SSC, 0.5% SDS, 100 μg/mL denatured salmon sperm DNA and 50% formamide, and containing a cDNA probe (uPAR or PAI-1) which was labeled with [^32P]-dCTP using a Pharmacia Oligolabelling kit. Following serial washes, the membrane was used to expose Dupont Reflection NEF film. After 1-4 days, the film was developed and analyzed. To correct for differences in the amount of RNA loaded in each sample, 28S rRNA was used.

SMILES: O=[N+]([O-])OCC(CO[N+](=O)[O-])O[N+](=O)[O-] [GTN, glyceryl trinitrate]
- uPAR protein levels vs 20% O2 alone (uPAR protein; combination of L-NMMA (0.5 mM) and GTN (0.1 nM), 20% O2): no significant increase
- hypoxic upregulation of uPAR protein expression (uPAR protein; single doses GTN 1 pM, 1 nM and 0.1 μM, 24 hours 0.5% oxygen): prevent the upregulation
- doxorubicin survival rates vs untreated hypoxic cells ([1]; hypoxic cells, 10^−6 M and 10^−10 M GTN): lower doxorubicin survival rates
- attenuation of hypoxia-induced resistance to doxorubicin ([1]; monolayer cells in 1% O2, GTN 1 μM): 50%
- PROXY-1 mRNA levels in hypoxic cells (PROXY-1 mRNA; 10^−7 M GTN): increased
- PROXY-1 mRNA levels in hypoxic cells (PROXY-1 mRNA; 10^−11 M GTN): much lower
- effect on hypoxic reduction of sGC activity (cGMP ELISA) ([2]; 0.5% O2, 2 hours, GTN (10^−10 M, 10^−6 M)): significantly prevented
- effect of hypoxia on accumulated cGMP levels ([2]; GTN 1 μM co-incubation, 0.5% O2 6 hours, IBMX 500 μM): prevented
- effect on hypoxic reduction in cGMP levels ([2]; GTN (1 mM) as printed, 6 hrs 0.5% O2, IBMX): completely prevented
- PAI-1 mRNA levels vs untreated hypoxic cells (PAI-1 mRNA): significantly decreased
